Read-outs that look alike come from different tables or passages of the source.
How the values were obtained:
Assay in all cases: microbe, parasite or virus in culture
Format in all cases: cell-based
[1] = test system: clinically isolated HIV strain D (D-2-001)
Method: (§1) The compounds were tested in a cellular assay using the MT4-LTR-EGFP cells for anti-viral activity. […] Because of the increasing emergence of drug resistant HIV strains, the present compounds were tested for their potency against clinically isolated HIV strains harboring several mutations. […] The viral strains A, B, C and D contain mutations as indicated below in Table 3.
(§2) The cellular assay was performed according to the following procedure. HIV- or mock-infected MT4-LTR-EGFP cells were incubated for three days in the presence of various concentrations of the compounds according to the invention. Upon infection, the viral tat protein activates the GFP reporter. At the end of the incubation period, the GFP signal was measured. […] The inhibitory activity of the compound was monitored on the virus-infected cells and was expressed as EC50. These values represent the amount of the compound required to protect 50% of the cells from virus infection.

[2] = test system: clinically isolated HIV strain C (C-2-001)
Method: as §1, §2

[3] = test system: wild type laboratory HIV strain (WT IIIB-2-001); settings: Human immunodeficiency virus 1, IIIB, 72 h, read-out: Virus Strains WT-IIIB-2-001
Method: as §1, §2

[4] = test system: clinically isolated HIV strain A (A-2-001)
Method: as §1, §2

[5] = test system: clinically isolated HIV strain B (B-2-001)
Method: as §1, §2

[6] = Human immunodeficiency virus 1, 72 h, read-out: Virus Strains D-2-001
[7] = Human immunodeficiency virus 1, 72 h, read-out: Virus Strains C-2-001
[8] = Human immunodeficiency virus 1, 72 h, read-out: Virus Strains A-2-001
[9] = Human immunodeficiency virus 1, 72 h, read-out: Virus Strains B-2-001

Structure (SMILES)	EC50 [1, 6]	EC50 [2, 7]	EC50 [3]	EC50 [4, 8]	EC50 [5, 9]	EC50 ([1]; Human immunodeficiency virus 1, read-out: pEC50-D (converted))	EC50 ([2]; Human immunodeficiency virus 1, read-out: pEC50-C (converted))	EC50 ([4]; Human immunodeficiency virus 1, read-out: pEC50-A (converted))	EC50 ([5]; Human immunodeficiency virus 1, read-out: pEC50-B (converted))
CC(C)CN(C[C@@H](O)[C@H](Cc1ccccc1)NC(=O)O[C@H]1CO[C@H]2OCC[C@H]21)S(=O)(=O)c1ccc(N)c(N[C@H]2CCN(C3CCCC3)C2)c1 (stereo in doubt) [Compound 79, (3-{[4-amino-3-(1-cyclopentyl-pyrrolidin-3-ylamino)-benzene-sulfonyl]-isobutyl-amino}-1-benzyl-2-hydroxy-propyl)-carbamic acid hexahydrofuro[2,3-b]furan-3-yl ester]	38.9 nM	50.1 nM	66.1 nM	20.9 nM	275 nM	–	–	–	–
CC(C)CN(C[C@@H](O)[C@H](Cc1ccccc1)NC(=O)O[C@H]1CO[C@H]2OCC[C@H]21)S(=O)(=O)c1ccc(N)cc1 [TMC 114, (3R,3aS,6aR)-hexahydrofuro[2,3-b]furan-3-yl N-[(1S,2R)-1-benzyl-2-hydroxy-3-(N 1-isobutylsulfanilamido)propyl]carbamate, reference compound]	–	–	–	–	–	4790 nM	89.1 nM	7.94 nM	851 nM
CC(C)CN1CC[C@H](Nc2cc(S(=O)(=O)N(CC(C)C)C[C@@H](O)[C@H](Cc3ccccc3)NC(=O)O[C@H]3CO[C@H]4OCC[C@H]43)ccc2N)C1 (stereo in doubt) [Compound 83, (3-{[4-amino-3-(1-isobutyl-pyrrolidin-3-ylamino)-benzenesulfonyl]-isobutyl-amino}-1-benzyl-2-hydroxy-propyl)-carbamic acid hexahydro-furo-[2,3-b]furan-3-yl ester]	75.9 nM	16.6 nM	26.3 nM	3.39 nM	129 nM	–	–	–	–
